Measured values published in patent publication US8546452B2, “S1P3 receptor antagonist” (TOA Eiyo Ltd., priority 2005, dated 2013).
Where two headings read alike, the source gives them in different places.

Legend:
Assay type in all cases: cell-based
hS1P3 [1] = target: T1, hS1P3 (Homo sapiens, UniProt Q99500); experiment: S1P receptor subtype selectivity, S1P-induced [Ca2+]i increase in CHO-K1 cells stably expressing S1P3 (Calcium3)
Experimental: (§1) The selectivity to the S1P receptor subtype was examined in the following manner. […] Furthermore, a Calcium3 (Molecular Devices, Inc.) solution prepared in HBSS (+) buffer, which is a fluorescent Ca^2+ indicator, was added, and the cells were incubated for 60 minutes at 37° C. Then, 100 μL of a test compound solution prepared to a concentration of 2×10 μmol/L was added, and the cells were incubated for 20 minutes at 37° C. […] The indicator was prepared and used according to the instruction manual.
(§2) A solution of the test compound was prepared by dissolving each of the test compounds in DMSO to a concentration of 10 mmol/L, and then diluting the solution with an HBSS (+) buffer solution to the predetermined concentration. […] The measurement values were obtained by subtracting the maximum RFU value for the blind test from the maximum RFU values for control or each test compounds. A decrease in the measurement value for the test compound relative to the control was indicated as the suppression rate (%), from which the IC50 value was calculated.

hS1P1 = target: T2, hS1P1 (Homo sapiens, UniProt P21453); experiment: S1P receptor subtype selectivity, S1P-induced [Ca2+]i increase in CHO-K1 cells stably expressing S1P1 (Calcium3)
T2 construct: expressed in transfected cells
Experimental: as §1, §2

hS1P3 [2] = target: T1, hS1P3; experiment: Suppressive effect on S1P-induced increase in [Ca2+]i, CHO-K1 cells expressing S1P3 (Fura 2-AM), IC50; details: S1P solution 50 nmol/L, read-out: hS1P3 suppression IC50
hS1P2 = target: T3, hS1P2 (Homo sapiens, UniProt O95136); experiment: S1P receptor subtype selectivity, S1P-induced [Ca2+]i increase in CHO-K1 cells stably expressing S1P2 (Calcium3)
T3 construct: expressed in transfected cells
Experimental: as §1, §2

[3] = 10 μM, CHO-K1 stably expressing S1P3, S1P solution 50 nmol/L, Calcium3, read-out: Suppression rate at 10 μM (%) hS1P3
[4] = 10 μM, CHO-K1 stably expressing S1P1, S1P solution 100 nmol/L, Calcium3, read-out: Suppression rate at 10 μM (%) hS1P1
[5] = 10 μM, CHO-K1 stably expressing S1P2, S1P solution 100 nmol/L, Calcium3, read-out: Suppression rate at 10 μM (%) hS1P2
[6] = CHO-K1, read-out: Suppression rate at 10 μM (%) hS1P3
[7] = CHO-K1, read-out: Suppression rate at 10 μM (%) hS1P1
[8] = CHO-K1, read-out: Suppression rate at 10 μM (%) hS1P2

T1 sequence (Q99500 whole entry): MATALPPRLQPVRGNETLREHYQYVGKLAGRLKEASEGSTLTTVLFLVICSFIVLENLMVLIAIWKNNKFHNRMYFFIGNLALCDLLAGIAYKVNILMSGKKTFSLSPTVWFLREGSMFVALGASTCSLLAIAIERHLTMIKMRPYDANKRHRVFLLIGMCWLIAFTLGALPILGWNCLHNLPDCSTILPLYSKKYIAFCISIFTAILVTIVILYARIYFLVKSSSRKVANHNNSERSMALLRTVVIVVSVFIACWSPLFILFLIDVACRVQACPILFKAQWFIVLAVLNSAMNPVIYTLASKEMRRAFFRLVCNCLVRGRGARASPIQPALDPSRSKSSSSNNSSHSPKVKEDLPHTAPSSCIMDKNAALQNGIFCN
T3 sequence (O95136 whole entry): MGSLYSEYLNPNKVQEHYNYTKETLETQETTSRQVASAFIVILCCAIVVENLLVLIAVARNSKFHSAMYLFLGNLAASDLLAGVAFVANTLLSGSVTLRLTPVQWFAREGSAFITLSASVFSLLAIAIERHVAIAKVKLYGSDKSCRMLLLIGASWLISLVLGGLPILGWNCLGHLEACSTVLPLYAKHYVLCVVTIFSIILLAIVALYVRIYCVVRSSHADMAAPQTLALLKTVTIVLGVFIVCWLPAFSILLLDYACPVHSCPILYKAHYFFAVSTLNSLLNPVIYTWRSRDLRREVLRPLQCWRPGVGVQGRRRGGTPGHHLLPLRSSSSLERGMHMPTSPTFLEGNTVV
T2 sequence (P21453 whole entry): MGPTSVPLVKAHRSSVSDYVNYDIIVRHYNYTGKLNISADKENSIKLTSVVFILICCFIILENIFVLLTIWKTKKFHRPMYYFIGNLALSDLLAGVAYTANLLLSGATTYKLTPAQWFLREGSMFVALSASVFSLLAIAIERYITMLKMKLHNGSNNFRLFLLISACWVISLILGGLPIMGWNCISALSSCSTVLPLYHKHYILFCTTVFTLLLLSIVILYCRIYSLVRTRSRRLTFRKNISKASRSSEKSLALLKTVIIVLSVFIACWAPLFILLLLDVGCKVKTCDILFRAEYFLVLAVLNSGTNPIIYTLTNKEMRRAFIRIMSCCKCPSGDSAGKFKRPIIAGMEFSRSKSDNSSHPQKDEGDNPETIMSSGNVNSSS

inhibition at 10 µM (hS1P3 [1]; [3]) [%] | inhibition at 10 µM (hS1P1; [4]) [%] | inhibition at 10 µM (hS1P2; [5]) [%] | Structure (SMILES) | IC50 (hS1P3 [2]) [nM] | inhibition at 10 µM (hS1P3 [1]; [6]) [%] | inhibition at 10 µM (hS1P1; [7]) [%] | inhibition at 10 µM (hS1P2; [8]) [%]
86.6 | 22.1 | 12.8 | CCC(CC)C(=O)C(=NNc1ccc(Cl)cc1)Nc1ccc(F)cc1 [Compound 112, 1-(4-chlorophenylhydrazono)-1-(4-fluorophenylamino)-3-ethyl-2-pentanone] | 1660 |  |  | 
91.1 | 17.5 | 13.7 | O=C(C(=NNc1ccc(Cl)cc1)Nc1cccc(F)c1)N1CCCCC1 [Compound 21, [1-(4-Chlorophenylhydrazono)-1-(3-fluorophenylamino)acetyl]piperidine] | 26800 |  |  | 
103 | 5.1 | 26.1 | CC(C)(C)C(=O)C(=NNc1ccc(Br)cc1)Nc1ccc(Br)cc1 [Compound 76, 1-(4-bromophenylamino)-1-(4-bromophenylhydrazono)-3,3-dimethyl-2-butanone] | 1660 |  |  | 
 |  |  | C#Cc1ccc(NC(=NNc2ccc(Br)cc2)C(=O)C(C)(C)C)cc1 [Compound 78, 1-(4-bromophenylhydrazono)-1-(4-ethynylphenylamino)-3,3-dimethyl-2-butanone] | 970 | 105 | 25.1 | 20.8
96.5 | 36.4 | 29.8 | CC(C)(C)C(=O)C(=NNc1ccc(Cl)cc1)Nc1ccc(Br)cc1 [Compound 134, 1-(4-bromophenylamino)-1-(4-chlorophenylhydrazono)-3,3-dimethyl-2-butanone] | 870 |  |  | 
68.5 | 18.6 | -0.4 | O=C(C(=NNc1ccc(Cl)cc1)Nc1cccc(F)c1F)c1ccccc1 [Compound 3, 2-(4-chlorophenylhydrazono)-2-(2,3-difluorophenylamino)acetophenone] | 14700 |  |  | 
 |  |  | C#Cc1ccc(NC(=NNc2ccc(Cl)cc2)C(=O)C(C)(C)C)cc1 [Compound 136, 1-(4-chlorophenylhydrazono)-1-(4-ethynylphenylamino)-3,3-dimethyl-2-butanone] | 990 | 94.3 | 40.3 | 33.7
90.2 | 20.8 | 15.5 | CC(C)(C)C(=O)C(=NNc1ccc(C(F)(F)F)cc1)Nc1ccc(F)cc1 [Compound 67, 1-(4-fluorophenylamino)-1-(4-trifluoromethylphenylhydrazono)-3,3-dimethyl-2-butanone] | 8200 |  |  | 
 |  |  | CC(C)(C)C(=O)C(=NNc1ccc(Cl)cc1)Nc1cccc(Cl)c1 [Compound 133, 1-(3-chlorophenylamino)-1-(4-chlorophenylhydrazono)-3,3-dimethyl-2-butanone] | 840 |  | 16.7 | 37.7
 |  |  | CC(C)(C)CC(=O)C(=NNc1ccc(Cl)cc1)Nc1ccc(Cl)cc1 [Compound 139, 1-(4-chlorophenylamino)-1-(4-chlorophenylhydrazono)-4,4-dimethyl-2-pentanone] | 1700 |  | 14.9 | 40.6
 |  |  | Cc1ccc(NN=C(Nc2ccc(C)cc2)C(=O)C(C)(C)C)cc1 [Compound 63, 1-(4-methylphenylamino)-1-(4-methylphenylhydrazono)-3,3-dimethyl-2-butanone] | 5710 |  | -9.1 | -1.4
 |  |  | C#Cc1ccc(NC(=NNc2ccc(Cl)cc2)C(=O)C(C)(C)CCl)cc1 [Compound 122, 4-chloro-1-(4-chlorophenylhydrazono)-1-(4-ethynylphenylamino)-3,3-dimethyl-2-butanone] | 3860 | 89.9 | 4.9 | 7.1
 |  |  | C#Cc1ccc(NC(=NNc2ccc(Cl)cc2)C(=O)CCCC)cc1 [Compound 111, 1-(4-chlorophenylhydrazono)-1-(4-ethynylphenylamino)-2-hexanone] | 1550 | 95.1 | -16.6 | 23.1
 |  |  | CC(C)(C)NC(=O)C(=NNc1ccc(Cl)cc1)Nc1ccc(Cl)cc1 [Compound 29, N-tert-butyl-[1-(4-chlorophenylamino)-1-(4-chlorophenylhydrazono)]acetamide] | 5110 |  | 29.7 | 17.4
105 | 20.4 | 23.2 | CC(C)(C)C(=O)C(=NNc1ccc(Br)cc1)Nc1ccc(F)cc1 [Compound 74, 1-(4-bromophenylhydrazono)-1-(4-fluorophenylamino)-3,3-dimethyl-2-butanone] | 2320 |  |  | 
 | 18.4 | 27.1 | CC(C)(C)C(=O)C(=NNc1cccc(Cl)c1)Nc1cccc(F)c1 [Compound 41, 1-(3-chlorophenylhydrazono)-1-(3-fluorophenylamino)-3,3-dimethyl-2-butanone] | 3540 |  |  | 
 |  |  | C#Cc1ccc(NN=C(Nc2cccc(Cl)c2)C(=O)C(C)(C)C)cc1 [Compound 108, 1-(3-chlorophenylamino)-1-(4-ethynylphenylhydrazono)-3,3-dimethyl-2-butanone] | 840 |  | 11.1 | 15.8
 |  |  | CC(C)(C)CC(=O)C(=NNc1ccc(Cl)cc1)Nc1cccc(Cl)c1 [Compound 140, 1-(3-chlorophenylamino)-1-(4-chlorophenylhydrazono)-4,4-dimethyl-2-pentanone] | 1990 |  | 18.3 | 26.2
 |  |  | CCOC(=O)C(=NNc1ccc(Cl)cc1)Nc1cccc(C#N)c1 [Compound 20, ethyl 1-(4-chlorophenylhydrazono)-1-(3-cyanophenylamino)acetate] | 2180 |  | -3.5 | -4.6
 |  |  | Cc1ccc(NN=C(Nc2ccc(Cl)cc2)C(=O)C(C)(C)C)cc1 [Compound 62, 1-(4-chlorophenylamino)-1-(4-methylphenylhydrazono)-3,3-dimethyl-2-butanone] | 1720 |  | -9.7 | 7.4
 |  |  | CCCCC(=O)C(=NNc1ccc(Cl)cc1)Nc1ccc(Cl)cc1 [Compound 115, 1-(4-chlorophenylamino)-1-(4-chlorophenylhydrazono)-2-hexanone] | 2470 |  | 24.3 | 27
 | 5.9 | 20.7 | CC(C)(C)CC(=O)C(=NNc1ccc(Cl)cc1)Nc1cccc(F)c1 [Compound 113, 1-(4-chlorophenylhydrazono)-1-(3-fluorophenylamino)-4,4-dimethyl-2-pentanone] | 1780 |  |  | 
 | 5.1 | 10 | Cc1ccc(NN=C(Nc2ccc(Cl)c(Cl)c2)C(=O)C(C)(C)C)cc1 [Compound 65, 1-(3,4-dichlorophenylamino)-1-(4-methylphenylhydrazono)-3,3-dimethyl-2-butanone] | 670 |  |  | 
 |  |  | CC(C)(C)C(=O)C(=NNc1ccc(Br)cc1)Nc1ccc(Cl)cc1 [Compound 75, 1-(4-bromophenylhydrazono)-1-(4-chlorophenylamino)-3,3-dimethyl-2-butanone] | 1170 |  | 17 | 17.9
 | 27.1 | 18.5 | CC(C)(C)C(=O)C(=NNc1ccc(F)cc1)Nc1cccc(F)c1 [Compound 53, 1-(3-fluorophenylamino)-1-(4-fluorophenylhydrazono)-3,3-dimethyl-2-butanone] | 4470 |  |  | 
 | 26.1 | -16.7 | CCOC(=O)C(=NNc1ccc(Cl)cc1)Nc1cccc(F)c1 [Compound 13, ethyl 1-(4-chlorophenylhydrazono)-1-(3-fluorophenylamino)acetate] | 3120 |  |  | 
101 | 22 | 16 | CC(C)(C)C(=O)C(=NNc1ccc(F)cc1)Nc1ccc(F)cc1 [Compound 54, 1-(4-fluorophenylamino)-1-(4-fluorophenylhydrazono)-3,3-dimethyl-2-butanone] | 4380 |  |  | 
 |  |  | CC(C)(C)C(=O)C(=NNc1cccc(Cl)c1)Nc1ccc(Cl)cc1 [Compound 42, 1-(4-chlorophenylamino)-1-(3-chlorophenylhydrazono)-3,3-dimethyl-2-butanone] | 2890 |  | 7.9 | 32.9
 |  |  | C#Cc1ccc(NN=C(Nc2ccc(C#C)cc2)C(=O)C(C)(C)C)cc1 [Compound 138, 1-(4-ethynylphenylamino)-1-(4-ethynylphenylhydrazono)-3,3-dimethyl-2-butanone] | 1620 | 79.9 | 14.1 | 8
